One compound from US10696686B2, “Herbicidally active (alkynyl-phenyl)-substituted cyclic dione compounds and derivatives thereof” (Syngenta Limited, priority 2013, dated 2020) can be followed below.

Holding throughout (type): in vivo
Experiment [1] deals with Abutilon theophrasti (ABUTH). The experiment can be described thus: Biological Example 1A glasshouse assay, post-emergence application. Particulars: 312 h, 13 days after application, read-out: Percentage phytotoxicity ABUTH. On the procedure:
(§1) Seeds of a variety of test plant species were sown in standard soil ** in pots. After cultivation for one day (pre-emergence) or after 8 days cultivation (post-emergence) under controlled conditions in a glasshouse (at 24/16° C., day/night; 14 hours light; 65% humidity), the plants were sprayed with an aqueous spray solution derived from the formulation of the technical active ingredient (the test herbicide) in acetone/water (50:50) solution containing 0.5% Tween 20 (polyoxyethylene sorbitan monolaurate, CAS Reg. No. 9005-64-5). The test plants were then grown on under controlled conditions in a glasshouse (at 24/16° C., day/night; 14 hours light; 65% humidity) and watered twice daily. 13 Days after application of the test herbicide, for pre- and post-emergence, the test was evaluated visually for percentage phytotoxicity to each plant (where 100%=total damage to plant; 0%=no damage to plant). Generally, each test herbicide is only tested on 1 plant per plant species for each application rate tested and for each application timing. ** The “standard soil” in Biological Example 1 is usually a “sand” or “sandy loam” type of soil.
(§2) Dicotyledonous weeds: ABUTH=Abutilon theophrasti; AMARE=Amaranthus retroflexus. Grassy monocotyledonous weeds: SETFA=Setaria faberi; ALOMY=Alopecurus myosuroides; ECHCG=Echinochloa crus-galli; ZEAMX=Zea mays (corn, maize, e.g. volunteer corn). For Compound A16, the grassy monocotyledonous weed LOLPE (Lolium perenne) was used in the test insterad of ALOMY.

For experiment [2], the system named is Amaranthus retroflexus (AMARE). The description is as above. Particulars: 312 h, 13 days after application, read-out: Percentage phytotoxicity AMARE. On the procedure:
as §1, §2

Experiment [3] has as its system Echinochloa crus-galli (ECHCG). Described as above. Particulars: 312 h, 13 days after application, read-out: Percentage phytotoxicity ECHCG. The protocol:
as §1, §2

The test system of experiment [4] is Lolium perenne (LOLPE). The experiment is described as above. The note with it: 13 days after application. The protocol: as §1, §2
For experiment [5], the system named is Setaria faberi (SETFA). The description is as above. The note with it: Setaria faberi, 312 h, post-emergence, 13 days after application, read-out: Percentage phytotoxicity SETFA. On the procedure:
as §1, §2

The subject of experiment [6] is Zea mays (ZEAMX, corn, maize, e.g. volunteer corn). The description is as above. Particulars: Zea mays, 312 h, post-emergence, 13 days after application, read-out: Percentage phytotoxicity ZEAMX. On the procedure: as §1, §2
The subject of experiment [7] is Abutilon theophrasti (ABUTH). Put plainly: Biological Example 1B glasshouse assay, pre-emergence application. Particulars: 250 g/ha, 13 days after application. The protocol:
as §1, §2

Experiment [8] relates to Amaranthus retroflexus (AMARE). The experiment is described as above. Particulars: 250 g/ha, 13 days after application. On the procedure:
as §1, §2

The test system of experiment [9] is Echinochloa crus-galli (ECHCG). The experiment is described as above. The note with it: 250 g/ha, 13 days after application. The protocol: as §1, §2
Experiment [10] concerns Lolium perenne (LOLPE). The experiment is described as above. The note with it: 250 g/ha, 13 days after application. The protocol:
as §1, §2

The test system of experiment [11] is Setaria faberi (SETFA). The description is as above. The note with it: 250 g/ha, 13 days after application. The protocol:
as §1, §2

In experiment [12] the test system is Zea mays (ZEAMX, corn, maize, e.g. volunteer corn). The experiment is described as above. The note with it: 250 g/ha, 13 days after application. The protocol:
as §1, §2

The subject of experiment [13] is grassy (in particular warm climate grassy) monocotyledonous weeds. Put plainly: Post-emergence herbicidal activity, summary statements on Biological Examples 1 to 3. Particulars: applied at about 250 g/ha post-emergence; Biological Examples 1 and 2. On the procedure:
as §1
Seeds of a variety of monocotyledonous and dicotyledonous test plants are sown in standard soil in pots. The plants are cultivated for one day (for pre-emergence) or for about 12 days (range=10-13 days) (for post-emergence) under controlled conditions in a glasshouse (warm climate species at 24/18° C., cool climate species at 20/16° C., both at day/night; 16 hours light; 65% humidity). An “instant formulation”, known as the “IF50”, containing 50 g/litre (i.e. 5% w/v) of the “technical” (i.e. unformulated) active ingredient is prepared by dissolving the active ingredient in a mixture of organic solvents and emulsifier, details of which are provided in the Table below. […]
The test plants are then grown on, in a glasshouse (greenhouse) under controlled conditions (at either 24/18° C. or 20/16° C. (day/night) as mentioned above; 16 hours light; 65% humidity) and are watered twice daily. Either 14 or 15 days after application of the herbicide (14 or 15 DAA) (for post-emergence), or 20 days after application of the herbicide (20 DAA) (for pre-emergence), the test plants are evaluated visually, and an assessed percentage phytotoxicity score is given for each herbicidal application on each plant species (where 100%=total damage to plant; 0%=no damage to plant). […]

As to `CC#Cc1cc(F)c(C2C(=O)C3C(C2=O)[C@H]2CC[C@@H]3O2)c(OC)c1` (stereo partly shown) [Compound A16], the pest or weed control at 30 g/ha in experiment [1] (30 g/ha) is 0%; in experiment [2] (30 g/ha), 0%; in [3] (30 g/ha), 90%; in the experiment on Setaria faberi (SETFA) [5] (30 g/ha), 70%; in [6] (30 g/ha), 90%. In addition, the pest or weed control at 250 g/ha came out at 70% in [1] (250 g/ha); 10% in experiment [2] (250 g/ha); 100% in experiment [3] (250 g/ha); 90% in the experiment with Setaria faberi (SETFA) [5] (250 g/ha); 100% in experiment [6] (250 g/ha). Also, the entries for the “Percentage phytotoxicity LOLPE” value in the experiment with Lolium perenne (LOLPE) [4] (30 g/ha), in the experiment with Lolium perenne (LOLPE) [4] (250 g/ha) and in the experiment with Lolium perenne (LOLPE) [10] were 70%, 90% and 90%, respectively. In addition, in experiment [7], the “Percentage phytotoxicity ABUTH” value stood at 0%. In addition, the “Percentage phytotoxicity AMARE” value in experiment [8] is 30%. The “Percentage phytotoxicity ECHCG” value in [9] is on record as 90%. In addition, the “Percentage phytotoxicity SETFA” value in the experiment with Setaria faberi (SETFA) [11] is listed as 70%. The “Percentage phytotoxicity ZEAMX” value in [12] is on record as 90%. For the same compound, the “post-emergent herbicidal potency against grassy monocotyledonous weeds (in words)” value in experiment [13] is “potent post-emergent herbicides”.
